Data taken from paper PMC10095747, “Modulatory Effects of Atractylodin and β-Eudesmol on Human Cytochrome P450 Enzymes: Potential Drug-Drug Interactions” (Molecules, 2023).
Like-named read-outs stand apart in the source and are kept apart here.

Experiments:
rCYP2C19 = rCYP2C19 (Homo sapiens, UniProt P33261); test: luminogenic P450-Glo CYP450 inhibition assay, rCYP2C19; conditions: three independent experiments
Description: (§1) The luminescent cytochrome P450 assay was used to determine CYP450-mediated (CYP1A2, 2C9, 2C19, 2D6, and 3A4) metabolism of atractylodin and β-eudesmol. The assay consisted of each recombinant human CYP450 (rCYP450), control membranes lacking P450 activity, a luminogenic CYP450 substrate (luciferin-ME substrate for rCYP1A2, luciferin-H substrate for rCYP2C9, luciferin-H EGE substrate for rCYP2C19, luciferin-ME EGE substrate for rCYP2D6, and luciferin-IPA substrate for rCYP3A4), KPO4 buffer, luciferin free water, NADPH regeneration system, and a luciferin detection reagent. The rCYP450 enzymes were generated from a baculovirus-infected insect cell expression system. The concentrations of the recombinant CYPs used were 0.5 (rCYP1A2 and rCYP2C9), 0.25 (rCYP2C19 and rCYP2D6) or 0.2 (rCYP3A4) pmol (0.5μL) per reaction. […] A luciferin product was produced after adding 25 µL of NADPH Regeneration System (solution A, solution B, and luciferin-free water) and incubated at 37 °C for 10 (rCYP1A2 and rCYP3A4), 20 (rCYP2C19 and rCYP2C9) or 30 (rCYP2D6) minutes. The reaction was stopped and converted to a luminescent signal after adding Luciferin Detection Reagent (50 µL) and incubated at 25 °C for 20 min. The luminescence signals obtained were determined using a Varioskan® Flash microplate reader (Waltham, MA, USA). The magnitude of luminescence in all of the samples represented CYP450 activity. […] All stock solutions were diluted with luciferin-free water until the final concentration of organic solvent was less than 0.25% (v/v) of the total reaction. The concentration range of atractylodin and β-eudesmol used were 2.74–686 µM and 2.25–562 µM, respectively. […] The concentration that inhibited the activity of each rCYP450 by 50% (IC50) was calculated using Calcusyn software (Cambridge, UK). Data are reported as the median (range) of the three independent experiments.

rCYP2D6 = rCYP2D6 (Homo sapiens, UniProt P10635); test: luminogenic P450-Glo CYP450 inhibition assay, rCYP2D6; conditions: three independent experiments
Description: as §1

mCYP3A11 mRNA = test: ex vivo mCYP3A11 mRNA expression in mouse livers (real-time PCR); conditions: male ICR mice, daily oral 100 mg/kg body weight, vs control
Description: (§2) Eight-week-old male ICR (Imprinting Control Region) mice weighing 35–40 g were used to investigate the modulatory effects of atractylodin and β-eudesmol on mCYP1A2 and mCYP3A11. The study protocol was approved by the Ethics Committee for Animal Research at Thammasat University (protocol number 016/2020). All animals were obtained from Nomura Siam International Co., Ltd. (Bangkok, Thailand). The animals were acclimatized for one week before the experiments. A total of 36 mice were allocated to three groups (i) control group (3 mice), (ii) atractylodin-treated group, and (iii) β-eudesmol-treated group. For atractylodin and β-eudesmol-treated groups, animals were fed with 100 mg/kg body weight of each compound for 1, 7, 14, and 21 (3 mice for each dose). Experiments were performed under the guidelines for the care and use of laboratory animals in a controlled environment of 12 h dark/light cycle, temperature 22 ± 2 °C, and relative humidity 30–70% at the Thammasat University Animal Center. Animals were observed daily for changes in signs and symptoms by a veterinarian. Mice were allowed access to the food pellets and water ad libitum.
Total mRNA was extracted from mouse livers using Trizol according to the manufacturer’s instructions. The concentration of mRNA was quantified by a nanodrop spectrophotometer. The First-Strand cDNA Synthesis Kit was used to generate cDNA from RNA. The CFX96 Touch Real-Time PCR Detection System was used to determine the expressions of mCYP1A2, mCYP3A11, and β-actin genes using the iTaq Universal SYBR Green Supermix. The PCR condition and the delta-delta Ct calculation were according to the previously described article. All primers used in this study were synthesized by Gibthai Co. Ltd. (Bangkok, Thailand).

mCYP3A11 = test: ex vivo mCYP3A11 protein expression in mouse liver microsomes (western blot); conditions: daily oral 100 mg/kg body weight
Description: as §2
(§3) Mouse liver samples were cut into small pieces, and the liver microsomes were prepared as described previously. The concentrations of proteins in the microsomes were determined using Pierce™ BCA Protein Assay Kit. mCYP1A2 and mCYP3A11 activities were evaluated based on phenacetin O-deethylation and nifedipine oxidation activities, respectively. The incubation mixture of 500 µL consisted of microsomes, substrate ([…]), and NADPH. […] The final organic solvent concentration in the incubation mixture was not higher than 1%. Each experiment was repeated three times (duplicated each). Determination of the concentrations of metabolites of mCYP1A2 (paracetamol) and mCYP3A11 (dehydronifedipine) in the reaction was performed using HPLC Agilent 1260 Infinity II with mobile gradient phase between methanol and distilled water at an initial ratio of 20:80 (v:v) and UV detection (240 nm). Calibration curves for both CYP450 activities were created over a concentration range of 1–50 µM. Oxidized nifedipine concentrations were determined using HPLC as follows: UV detection at 235 nm with an isocratic mobile phase consisting of methanol and distilled water (70:30, v:v). […] In each analytical batch, quality control (QC) samples were run in duplicate at low, medium, and high concentrations. Acceptance criteria were four out of six QC analyses falling within 100 ± 15% of the nominal values.
The microsomal protein concentration for both mCYP1A2 and […] was 25 μg protein per lane. Proteins were denatured by combining equal volumes of liver microsomes with sample buffer (1:19 (v:v) of 2-mercaptoethanol and 2x Laemmle buffer) and heating at 100 °C for 5 min. Proteins were separated using 12% SDS-PAGE according to their size characteristics before being migrated to nitrocellulose blotting membranes.

mCYP1A2 = test: ex vivo mCYP1A2 activity in mouse liver microsomes (phenacetin O-deethylation); conditions: daily oral 100 mg/kg body weight
Description: Phenacetin and nifedipine are substrates of CYP1A2 and CYP3A11, respectively. Both substrates are converted via the CYP enzyme to paracetamol and dehydronefedipine, respectively. The concentrations of paracetamol and dehydronefedipine were used to determine the activities of mCYP1A2 and mCYP3A11. The effects of atractylodin and β-eudesmol on mCYP1A2 and mCYP3A11 activities were, respectively, determined by measuring paracetamol (mCYP1A2-dependent metabolite) and dehydronifiedipine (mCYP3A11-dependent metabolite) concentrations.
as §2, §3

Sequence of rCYP2C19 (P33261 whole entry): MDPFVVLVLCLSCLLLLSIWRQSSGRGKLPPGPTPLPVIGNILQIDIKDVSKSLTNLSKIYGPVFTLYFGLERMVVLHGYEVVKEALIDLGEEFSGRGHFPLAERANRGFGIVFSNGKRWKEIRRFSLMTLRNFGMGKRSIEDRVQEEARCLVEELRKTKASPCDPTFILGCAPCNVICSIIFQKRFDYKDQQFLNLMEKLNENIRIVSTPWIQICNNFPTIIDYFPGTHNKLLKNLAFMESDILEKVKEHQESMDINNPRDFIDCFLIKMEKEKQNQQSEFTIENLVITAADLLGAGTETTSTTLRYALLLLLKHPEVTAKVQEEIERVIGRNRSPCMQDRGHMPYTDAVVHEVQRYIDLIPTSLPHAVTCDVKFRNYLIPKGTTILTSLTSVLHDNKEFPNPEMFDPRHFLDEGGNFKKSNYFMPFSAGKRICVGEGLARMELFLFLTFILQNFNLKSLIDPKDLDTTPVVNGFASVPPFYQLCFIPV
Sequence of rCYP2D6 (P10635 whole entry): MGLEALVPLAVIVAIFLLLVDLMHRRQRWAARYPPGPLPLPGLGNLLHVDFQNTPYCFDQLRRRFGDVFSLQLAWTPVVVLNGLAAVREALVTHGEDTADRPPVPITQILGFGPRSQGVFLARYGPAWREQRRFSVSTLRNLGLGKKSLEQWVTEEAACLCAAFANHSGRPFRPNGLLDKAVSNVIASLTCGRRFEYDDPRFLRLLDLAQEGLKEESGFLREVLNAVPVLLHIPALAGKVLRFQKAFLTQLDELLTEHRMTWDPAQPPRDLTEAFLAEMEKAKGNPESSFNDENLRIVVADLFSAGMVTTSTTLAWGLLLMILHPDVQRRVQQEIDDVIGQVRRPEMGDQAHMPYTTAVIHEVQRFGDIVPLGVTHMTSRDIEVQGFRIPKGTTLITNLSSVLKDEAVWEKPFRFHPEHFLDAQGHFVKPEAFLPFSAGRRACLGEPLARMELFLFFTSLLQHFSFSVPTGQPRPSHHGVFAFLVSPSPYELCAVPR

C/C=C/C#CC#C/C=C/c1ccco1 [Atractylodin]
Median IC50 (Range) rCYP2C19 (rCYP2C19; median (range)): >125 µg/mL | IC50 (rCYP2C19; read-out: Median IC50 (Range) rCYP2C19, median (range)): > 686 µM | Median IC50 (Range) rCYP2D6 (rCYP2D6; median (range)): >125 µg/mL | IC50 (rCYP2D6; read-out: Median IC50 (Range) rCYP2D6, median (range)): > 686 µM | Fold-changes of mCYP3A11 mRNA levels (mCYP3A11 mRNA; 1 day): 1.72 fold | Fold-changes of mCYP3A11 mRNA levels (mCYP3A11 mRNA; 7 days): 1.3 fold | Fold-changes of mCYP3A11 mRNA levels (mCYP3A11 mRNA; 14 days): 0.87 fold | Fold-changes of mCYP3A11 mRNA levels (mCYP3A11 mRNA; 21 days): 0.62 fold | Protein expression ratio of mCYP3A11 (mCYP3A11; 1 day, control 1.73): 1.82 | Protein expression ratio of mCYP3A11 (mCYP3A11; 7 days, control 1.57, 100 mg/kg): significantly downregulated | Protein expression ratio of mCYP3A11 (mCYP3A11; 7 days, control 1.57, listed as Atactylodin, 100 mg/kg): 1.26 | Protein expression ratio of mCYP3A11 (mCYP3A11; 14 days, control 2.31, 100 mg/kg): significantly downregulated | Protein expression ratio of mCYP3A11 (mCYP3A11; 14 days, control 2.31, listed as Atactylodin, 100 mg/kg): 1.67 | Protein expression ratio of mCYP3A11 (mCYP3A11; 21 days, control 2.18, 100 mg/kg): significantly downregulated | Protein expression ratio of mCYP3A11 (mCYP3A11; 21 days, control 2.18, listed as Atactylodin, 100 mg/kg): 1.41 | Paracetamol concentration (mCYP1A2 activity) (mCYP1A2; 1 day, control 11.40, 100 mg/kg): significantly increased | Paracetamol concentration (mCYP1A2 activity) (mCYP1A2; 1 day, control 11.40, listed as Atactylodin, 100 mg/kg): 15.80 µM | Paracetamol concentration (mCYP1A2 activity) (mCYP1A2; 7 days, control 12.25): 12.00 µM | Paracetamol concentration (mCYP1A2 activity) (mCYP1A2; 14 days, control 12.80): 14.50 µM | Paracetamol concentration (mCYP1A2 activity) (mCYP1A2; 21 days, control 12.90, 100 mg/kg): significant decrease | Paracetamol concentration (mCYP1A2 activity) (mCYP1A2; 21 days, control 12.90, listed as Atactylodin, 100 mg/kg): 10.60 µM

C=C1CCC[C@]2(C)CC[C@@H](C(C)(C)O)C[C@@H]12 [β-Eudesmol]
IC50 (rCYP2C19; Median IC50 (Range) rCYP2C19, median (range)): 173 µM | IC50 (rCYP2D6; Median IC50 (Range) rCYP2D6, median (range)): > 562 µM | Fold-changes of mCYP3A11 mRNA levels (mCYP3A11 mRNA; 1 day, 100 mg/kg): 2.18 fold | Fold-changes of mCYP3A11 mRNA levels (mCYP3A11 mRNA; 7 days, 100 mg/kg): 1.5 fold | Fold-changes of mCYP3A11 mRNA levels (mCYP3A11 mRNA; 7 days, listed as β‐eudesmol, 100 mg/kg): 1.50 fold | Fold-changes of mCYP3A11 mRNA levels (mCYP3A11 mRNA; 14 days): 0.96 fold | Fold-changes of mCYP3A11 mRNA levels (mCYP3A11 mRNA; 21 days): 0.78 fold | Protein expression ratio of mCYP3A11 (mCYP3A11; 1 day, control 1.73): 1.50 | Protein expression ratio of mCYP3A11 (mCYP3A11; 7 days, control 1.57): 1.62 | Protein expression ratio of mCYP3A11 (mCYP3A11; 14 days, control 2.31, listed as β-eudesmol, 100 mg/kg): significantly downregulated | Protein expression ratio of mCYP3A11 (mCYP3A11; 14 days, control 2.31, listed as β‐eudesmol, 100 mg/kg): 1.60 | Protein expression ratio of mCYP3A11 (mCYP3A11; 21 days, control 2.18, listed as β-eudesmol, 100 mg/kg): significantly downregulated | Protein expression ratio of mCYP3A11 (mCYP3A11; 21 days, control 2.18, listed as β‐eudesmol, 100 mg/kg): 1.42 | Paracetamol concentration (mCYP1A2 activity) (mCYP1A2; 1 day, control 11.40): 12.35 µM | Paracetamol concentration (mCYP1A2 activity) (mCYP1A2; 7 days, control 12.25): 11.80 µM | Paracetamol concentration (mCYP1A2 activity) (mCYP1A2; 14 days, control 12.80): 13.25 µM | Paracetamol concentration (mCYP1A2 activity) (mCYP1A2; 21 days, control 12.90, listed as β-eudesmol, 100 mg/kg): significantly decreased | Paracetamol concentration (mCYP1A2 activity) (mCYP1A2; 21 days, control 12.90, listed as β‐eudesmol, 100 mg/kg): 8.30 µM
